These results are taken from patent publication US8937089B2, “Synergistic mixtures of anthranilamide invertebrate pest control agents” (priority 2004, dated 2015).

As usually defined, the mortality is the percentage killed.

In the experiment the test system is beet armyworm (Spodoptera exigua). Description: Test I: control of beet armyworm, spray on tomato plants, excised leaves, % mortality and % feeding at 72 hours. The format is in vivo. How it is done:
For evaluating control of beet armyworm (Spodoptera exigua), methomyl was in the liquid formulation as Lannate® LV (29% of active ingredient). Compound 1 was in a water dispersible granules (WDG) formulation with 35% active ingredient. The test compounds were dissolved in water. Enough water was added to make 100 ppm of active ingredient for each compound. Serial dilutions were made to obtain the appropriate concentrations. To obtain the desired mixture concentrations of each compound, twice the desired concentration of each of the two mixture partner compounds were mixed together in equal volumes.
The diluted solutions of the test compounds were sprayed to run-off on three-week-old tomato plants. The plants were placed on a rotating turntable sprayer (10 rpm). Test solutions were applied using a flat fan air-assisted nozzle (Spraying Systems 122440) at 10 psi (69 kPa). After each treated plant had dried, leaves were excised from the treated plant. The leaves were cut into pieces, which were placed singly into 5.5 cm-by-3.5 cm cells of a sixteen-cell plastic tray. Each cell contained a 2.5-cm square of moistened chromatography paper to prevent desiccation. One insect was placed in each cell. There two trays per treatment. […]

With `CNC(=O)c1cc(Cl)cc(C)c1NC(=O)c1cc(Br)nn1-c1ncccc1Cl` [Compound 1, 3-bromo-N-[4-chloro-2-methyl-6-[(methylamino)carbonyl]phenyl]-1-(3-chloro-2-pyridinyl)-1H-pyrazole-5-carboxamide], the “% feeding” value by setting is: (Compound 1 0.022 ppm) 9%; (Compound 1 0.041 ppm) 6%; (Compound 1 0.163 ppm) 2%; (Compound 1 0.209 ppm) 2%; (Compound 1 0.30 ppm) 1%; (Compound 1 0.60 ppm) 1%. Further, the mortality at 0.022 ppm (Spodoptera exigua, Compound 1 0.022 ppm, read-out: % mortality (observed)) is 13%. The mortality at 0.041 ppm (Spodoptera exigua, Compound 1 0.041 ppm, read-out: % mortality (observed)) stood at 44%. Besides, the mortality at […] (Spodoptera exigua, Compound 1 0.076 ppm, read-out: % mortality (observed)) came to 25%. Besides, the mortality at 0.163 ppm (Spodoptera exigua, Compound 1 0.163 ppm, read-out: % mortality (observed)) was determined as 35%. Further, the mortality at 0.209 ppm (Spodoptera exigua, Compound 1 0.209 ppm, read-out: % mortality (observed)) is 47%. Further, the mortality at 0.3 ppm (Spodoptera exigua, Compound 1 0.30 ppm, read-out: % mortality (observed)) was determined as 59%. Besides, the mortality at 0.6 ppm (Spodoptera exigua, Compound 1 0.60 ppm, read-out: % mortality (observed)) is 75%.
